Converted amounts (≈) assume the structure as drawn. Read-outs that look alike come from different tables or passages of the source.
Tests used:
[1] = tested on: allergic airway inflammation; set-up: method as in PMID 19289114; conditions: mice, 60 mg/kg; cited from earlier work
[2] = Post-preparative stability of extracted samples; format: physicochemical; conditions: for Mean recovery: post-preparative: extracted samples 24 hours at 20°C, n = 8, ± SD; for RE: post-preparative
Experimental: Freeze-thawed, post-preparative and long-term stability assay samples were prepared and evaluated similar to the short-term stability samples. However, the freeze thawing assay was assessed after undergoing three freeze-thaw cycles (one freeze-thaw cycle per day on three consecutive days) and post-preparative assay, maintaining the extracted samples for 24 hours in the Sample Manager (20°C, transparent vials). The long-term stability of human plasma stored at -40°C was assessed at the end of the study (60 days).

[3] = Stability of stock solutions and working standard solutions; format: physicochemical; conditions: for Mean recovery: n = 8, ± SD
Experimental: The stability of the stock solutions (1 mg/mL of each analyte and ISs) was evaluated after 30 days of storage in a refrigerator (4°C, amber bottles). The stored solutions were diluted with acetonitrile/water (70:30 v/v) to obtain the same concentration levels as the short-term stability assay. The stability of the stock solutions was evaluated by comparing the mean recovery of the analytes and IS obtained from stored samples to the mean values obtained with freshly prepared samples, at the same concentration levels. The stability of the working standard solutions was assessed using a procedure similar to that described for stock solution stability. […]

[4] = Second screening: 60 mL of guaco syrup spiked with 100, 500, 1000 or 1500 mg of COU; format: in vivo, human
Experimental: All the volunteers fasted for 8 h prior to the administration of guaco syrup and blood collection. Blood samples (3.0 mL) were collected (using flexible catheter 18–20G) before the syrup administration (zero min) and at fifteen time points after the syrup administration (10, 20, 30, 45, 60, 75, 90, 120, 150, 180, 240, 360, 480, 540 and 600 min). The anticoagulant used was tetrasodium edetate. All the samples were immediately centrifuged at 4000 rpm (5.0 min, room temperature), and the plasma was aliquoted and frozen at -40°C until analysis. The pharmacokinetic analysis was performed using a non-compartmental model, considering an extravascular administration route and using WinNonlin Professional software, version 5.3. The relationships among the areas under the curves (r areas = AUC0-t/AUC0-inf), were used to confirm the suitability of the experimental design. Values greater than 0.8 indicated an appropriate experimental design.

[5] = tested on: histamine inhalation; set-up: method as in PMID 16084046; conditions: guinea pigs; cited from earlier work
[6] = tested on: guinea pig tracheas; set-up: method as in PMID 16084046; conditions: cited from earlier work
[7] = set-up: method as in PMID 598421; conditions: cited from earlier work
[8] = high level (1250.0, 750.0, 750.0, 500.0 ng/mL)
[9] = low level (50.0, 12.5, 25.0, 10.0 ng/mL)
[10] = 8 h at room temperature, high level (Coumarin 1250.0, 7-hydroxycoumarin 750.0, o-coumaric acid 750.0, Kaurenoic acid 500.0 ng/mL)
[11] = 8 h at room temperature, high level, stored vs freshly prepared
[12] = 8 h at room temperature, low level (Coumarin 50.0, 7-hydroxycoumarin 12.5, o-coumaric acid 25.0, Kaurenoic acid 10.0 ng/mL)
[13] = 8 h at room temperature, low level, stored vs freshly prepared
[14] = 30 days at 4 °C (stock solutions), high level (1250.0, 750.0, 750.0, 500.0 ng/mL)
[15] = 30 days at 4 °C (stock solutions), low level (50.0, 12.5, 25.0, 10.0 ng/mL)

Mean recovery [2, 8]	Mean recovery [2, 9]	RE ([2]; high level)	RE ([2]; low level)	Mean recovery [3, 10]	RE [3, 11]	Mean recovery [3, 12]	RE [3, 13]	Mean recovery [3, 14]	Mean recovery [3, 15]	RE ([3]; 30 days at 4 °C, high level)	RE ([3]; 30 days at 4 °C, low level)	time of peak absorption after syrup administration ([4]; all four volunteers, 100, 500, 1000 and 1500 mg COU)	Tmax ([4]; both sexes, human, plasma, oral, read-out: time of peak concentration in plasma)	concentration at 10 min ([4]; human, plasma, oral, 100 mg dosage, 10 min after syrup administration)	Compound	attenuation of allergic airway inflammation [1]	AD50 (adequate dose protecting 50% of the tested animals) [5]	EC50, relaxing effect ([6]; guinea pig tracheas pre-contracted with carbachol)	EC50, relaxing effect ([6]; guinea pig tracheas pre-contracted with histamine)	bioavailability [7]
776.4 ± 18.7 ng/mL	11.5 ± 0.7 ng/mL	3.52%	-7.73%	757.9 ± 5.6 ng/mL	1.06%	11.6 ± 0.6 ng/mL	-7.41%	791.8 ± 60.5 ng/mL	11.4 ± 0.9 ng/mL	5.57%	-8.02%	–	–	–	O=c1ccc2ccc(O)cc2o1 [7-HCOU, 7-hydroxycoumarin]	significant attenuation	–	–	–	–
1281.3 ± 44.2 ng/mL	47.6 ± 3.4 ng/mL	5.00%	-9.55%	1293.1 ± 30.5 ng/mL	3.45%	54.5 ± 3.2 ng/mL	8.94%	1173.4 ± 67.9 ng/mL	56.1 ± 2.3 ng/mL	-6.13%	12.27%	10 min	0.75 to 2 h	22.1 ng/mL	O=c1ccc2ccccc2o1 [COU, 1,2 benzopyrone]	–	75 mg/kg	33.4 µg/mL (≈ 229 µM)	35.0 µg/mL (≈ 239 µM)	3.4%
727.4 ± 34.5 ng/mL	22.7 ± 0.6 ng/mL	-3.01%	-2.32%	718.0 ± 48.0 ng/mL	-4.26%	22.6 ± 1.3 ng/mL	-9.44%	640.8 ± 45.6 ng/mL	22.8 ± 1.2 ng/mL	-14.55%	-8.89%	–	–	–	O=C(O)/C=C/c1ccccc1O [OCA, o-coumaric acid]	–	–	–	–	–

From paper PMC4355590, “A Kinetic Study of the Main Guaco Metabolites Using Syrup Formulation and the Identification of an Alternative Route of Coumarin Metabolism in Humans” (PLoS ONE, 2015)
